Measured values published in US9084788B2, “Compositions and methods for treating and preventing dermatoses” (Asymmetric Therapeutics, LLC, priority 2002, dated 2015).

Key:
[1] = test system: patients (Hand and Foot syndrome); experiment: Ten patients treated one to six months, prevention of Hand and Foot syndrome; assay type: in vivo, human
Description: The calculations are based on topical application of 1 g of cream to the hands and 1 g to the feet twice a day, totaling 4 g. […] A volume of distribution (Vd) of 50 L is assumed.

[2] = test system: patients (hand-foot syndrome); settings: in vivo; cited from earlier work
[3] = test system: Marker tumor (metastatic breast cancer); experiment: Marker tumor size in the metastatic breast cancer patient on Xeloda and Taxotere; assay type: in vivo, human; settings: seen prior to course 5, on lower dose Xeloda (1000 mg/m^2)
Description: They had refused mastectomy and had previously failed adriamycin and cytoxan, weekly taxol, and weekly navelbine. […] FIGS. 3A, 3B and 3C illustrate the incidence of Hand and Foot syndrome in patients treated with Xeloda®.

OPRT = target: T1, OPRT (Homo sapiens, UniProt P11172); settings: neutral pH; cited from earlier work
T1 sequence (P11172 1-480): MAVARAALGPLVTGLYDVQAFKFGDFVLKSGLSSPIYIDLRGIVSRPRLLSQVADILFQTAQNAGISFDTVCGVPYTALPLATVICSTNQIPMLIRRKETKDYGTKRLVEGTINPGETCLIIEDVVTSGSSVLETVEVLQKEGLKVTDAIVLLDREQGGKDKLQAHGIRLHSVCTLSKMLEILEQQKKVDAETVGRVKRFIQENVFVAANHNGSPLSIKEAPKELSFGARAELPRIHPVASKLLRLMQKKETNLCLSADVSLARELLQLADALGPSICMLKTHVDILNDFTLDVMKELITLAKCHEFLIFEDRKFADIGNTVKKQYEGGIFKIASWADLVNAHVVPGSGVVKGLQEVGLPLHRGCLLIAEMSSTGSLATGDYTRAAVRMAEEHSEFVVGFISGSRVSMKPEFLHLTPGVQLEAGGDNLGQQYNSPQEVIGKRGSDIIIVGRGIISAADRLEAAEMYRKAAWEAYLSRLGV

[4] = target: T2, dihydropyrimidine dehydrogenase (DPD) (Homo sapiens, UniProt Q12882); settings: in vivo; cited from earlier work
T2 construct: greater than 80% of an injected dose of 5-FU rapidly degraded by a single pathway
T2 sequence (Q12882 4-1025): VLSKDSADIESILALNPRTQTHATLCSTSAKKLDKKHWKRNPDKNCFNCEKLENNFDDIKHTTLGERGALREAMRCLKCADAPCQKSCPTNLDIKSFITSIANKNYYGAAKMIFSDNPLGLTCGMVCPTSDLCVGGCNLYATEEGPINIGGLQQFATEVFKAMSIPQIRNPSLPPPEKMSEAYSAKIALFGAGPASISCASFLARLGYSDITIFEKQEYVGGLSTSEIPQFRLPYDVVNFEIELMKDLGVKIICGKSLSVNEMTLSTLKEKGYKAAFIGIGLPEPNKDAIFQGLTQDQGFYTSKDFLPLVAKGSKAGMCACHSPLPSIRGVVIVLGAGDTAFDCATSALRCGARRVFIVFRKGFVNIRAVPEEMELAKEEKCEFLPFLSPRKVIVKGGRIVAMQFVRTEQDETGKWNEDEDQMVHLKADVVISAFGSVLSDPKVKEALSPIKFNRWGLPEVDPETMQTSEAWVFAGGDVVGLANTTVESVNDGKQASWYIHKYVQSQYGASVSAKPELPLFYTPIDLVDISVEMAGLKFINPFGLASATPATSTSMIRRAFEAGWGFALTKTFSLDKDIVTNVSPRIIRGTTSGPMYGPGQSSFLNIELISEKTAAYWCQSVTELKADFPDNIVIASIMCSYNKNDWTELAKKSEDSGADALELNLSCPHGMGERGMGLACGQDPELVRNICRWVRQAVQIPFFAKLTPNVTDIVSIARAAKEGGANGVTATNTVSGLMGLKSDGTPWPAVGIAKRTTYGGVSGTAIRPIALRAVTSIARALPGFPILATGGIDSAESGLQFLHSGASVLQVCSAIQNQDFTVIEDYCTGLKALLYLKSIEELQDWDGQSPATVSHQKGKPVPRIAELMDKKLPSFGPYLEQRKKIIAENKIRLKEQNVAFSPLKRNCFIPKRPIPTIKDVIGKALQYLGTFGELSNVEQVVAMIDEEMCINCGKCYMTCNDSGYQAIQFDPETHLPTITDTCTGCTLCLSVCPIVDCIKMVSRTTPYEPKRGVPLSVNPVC

[5] = target: T3, human dihydrouracil dehydrogenase (DPD) (Homo sapiens, UniProt Q12882); settings: Naguib et al. 1985; cited from earlier work
T3 sequence (Q12882 4-1025): T2 sequence (Q12882 4-1025)

O=c1cc[nH]c(=O)[nH]1 [Uracil, uracil]
toxicity [1]: no reports of toxicity | prevention of Hand and Foot syndrome ([1]; 1% cream): complete efficacy

CCCCCOC(=O)Nc1nc(=O)n([C@@H]2O[C@H](C)[C@@H](O)[C@H]2O)cc1F [Xeloda, capecitabine]
frequency of hand-foot syndrome during treatment [2]: common | patients with Grade II-III hand foot toxicity [2]: 10-50% | Marker tumor course (remark) [3]: progression

O=C(O)c1cc(=O)[nH]c(=O)[nH]1 [Orotate, orotate]
Km for OPRT, lower than that of 5-FU (OPRT): ~50 fold

O=c1[nH]cc(F)c(=O)[nH]1 [5-FU, 5-fluorouracil]
share of an injected dose rapidly degraded by the DPD pathway [4]: greater than 80% | substrate quality for DPD compared with uracil [5]: better substrate | OPRT preference for 5-FU over uracil (OPRT): about 50 times
